pEC50, pIC50, pKi: −log10 of the molar value.
Assays:
physchem = settings: buffer, pH 7.4, logD
Description: Lipophilicity, log D of the compound at pH 7.4 by microscale shake flask method

[1] = target: Epidermal growth factor receptor (Homo sapiens, UniProt P00533, L858R/T790M)
Liver microsome = assay: Stability in human liver microsomes; assay type: ADME
Hepatocyte = assay: Stability in human hepatocytes; assay type: ADME, cell-based
[2] = target: T1, Epidermal growth factor receptor (Homo sapiens, UniProt P00533)
NCI-H1975 = assay: Antiproliferative activity against human NCI-H1975 cells expressing EGFR T790M/L858R double mutant after 72 hrs by luminescence assay; assay type: functional, cell-based; settings: NCI-H1975, 72 h
[3] = target: T1, Epidermal growth factor receptor; remark: listed apart in the source
Description: Inhibition of EGFR phosphorylation in human NCI-H292 cells preincubated for 1 hr followed by stimulation with EGF for 8 mins by electrochemiluminescent immunoassay

Epidermal growth factor receptor (Homo sapiens, UniProt P00533, L858R/T790M), sequence (P00533 25-1210 T790M/L858R limits assumed): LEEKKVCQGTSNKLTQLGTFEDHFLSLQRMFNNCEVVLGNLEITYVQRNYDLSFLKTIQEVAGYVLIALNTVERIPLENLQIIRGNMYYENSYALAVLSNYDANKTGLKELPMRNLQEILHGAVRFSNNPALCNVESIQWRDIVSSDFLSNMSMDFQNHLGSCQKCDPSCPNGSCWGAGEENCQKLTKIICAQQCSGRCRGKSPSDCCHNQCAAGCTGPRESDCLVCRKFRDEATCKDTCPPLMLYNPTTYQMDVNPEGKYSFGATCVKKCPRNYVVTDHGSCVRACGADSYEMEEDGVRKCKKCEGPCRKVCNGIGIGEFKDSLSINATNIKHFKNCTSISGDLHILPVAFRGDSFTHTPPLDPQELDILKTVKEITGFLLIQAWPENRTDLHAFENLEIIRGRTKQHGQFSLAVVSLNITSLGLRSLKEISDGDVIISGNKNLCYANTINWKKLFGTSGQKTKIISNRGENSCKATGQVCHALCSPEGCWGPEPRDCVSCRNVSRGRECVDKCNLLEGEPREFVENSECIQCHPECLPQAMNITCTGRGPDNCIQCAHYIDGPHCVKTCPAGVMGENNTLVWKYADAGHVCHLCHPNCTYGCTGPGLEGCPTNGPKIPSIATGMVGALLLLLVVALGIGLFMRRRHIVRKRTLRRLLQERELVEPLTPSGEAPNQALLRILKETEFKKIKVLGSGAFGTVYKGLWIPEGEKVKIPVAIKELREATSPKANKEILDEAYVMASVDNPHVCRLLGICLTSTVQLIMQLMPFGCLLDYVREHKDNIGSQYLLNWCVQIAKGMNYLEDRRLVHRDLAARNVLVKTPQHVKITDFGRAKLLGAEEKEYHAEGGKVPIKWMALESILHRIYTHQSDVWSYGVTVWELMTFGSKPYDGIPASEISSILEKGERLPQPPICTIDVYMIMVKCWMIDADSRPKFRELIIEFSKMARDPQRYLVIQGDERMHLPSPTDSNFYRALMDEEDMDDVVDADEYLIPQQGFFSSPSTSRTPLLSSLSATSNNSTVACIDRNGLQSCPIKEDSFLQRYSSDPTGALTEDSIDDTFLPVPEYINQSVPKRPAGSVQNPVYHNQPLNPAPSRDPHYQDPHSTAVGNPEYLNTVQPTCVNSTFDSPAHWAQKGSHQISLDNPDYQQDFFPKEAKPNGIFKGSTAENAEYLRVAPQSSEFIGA
T1 sequence (P00533 whole entry): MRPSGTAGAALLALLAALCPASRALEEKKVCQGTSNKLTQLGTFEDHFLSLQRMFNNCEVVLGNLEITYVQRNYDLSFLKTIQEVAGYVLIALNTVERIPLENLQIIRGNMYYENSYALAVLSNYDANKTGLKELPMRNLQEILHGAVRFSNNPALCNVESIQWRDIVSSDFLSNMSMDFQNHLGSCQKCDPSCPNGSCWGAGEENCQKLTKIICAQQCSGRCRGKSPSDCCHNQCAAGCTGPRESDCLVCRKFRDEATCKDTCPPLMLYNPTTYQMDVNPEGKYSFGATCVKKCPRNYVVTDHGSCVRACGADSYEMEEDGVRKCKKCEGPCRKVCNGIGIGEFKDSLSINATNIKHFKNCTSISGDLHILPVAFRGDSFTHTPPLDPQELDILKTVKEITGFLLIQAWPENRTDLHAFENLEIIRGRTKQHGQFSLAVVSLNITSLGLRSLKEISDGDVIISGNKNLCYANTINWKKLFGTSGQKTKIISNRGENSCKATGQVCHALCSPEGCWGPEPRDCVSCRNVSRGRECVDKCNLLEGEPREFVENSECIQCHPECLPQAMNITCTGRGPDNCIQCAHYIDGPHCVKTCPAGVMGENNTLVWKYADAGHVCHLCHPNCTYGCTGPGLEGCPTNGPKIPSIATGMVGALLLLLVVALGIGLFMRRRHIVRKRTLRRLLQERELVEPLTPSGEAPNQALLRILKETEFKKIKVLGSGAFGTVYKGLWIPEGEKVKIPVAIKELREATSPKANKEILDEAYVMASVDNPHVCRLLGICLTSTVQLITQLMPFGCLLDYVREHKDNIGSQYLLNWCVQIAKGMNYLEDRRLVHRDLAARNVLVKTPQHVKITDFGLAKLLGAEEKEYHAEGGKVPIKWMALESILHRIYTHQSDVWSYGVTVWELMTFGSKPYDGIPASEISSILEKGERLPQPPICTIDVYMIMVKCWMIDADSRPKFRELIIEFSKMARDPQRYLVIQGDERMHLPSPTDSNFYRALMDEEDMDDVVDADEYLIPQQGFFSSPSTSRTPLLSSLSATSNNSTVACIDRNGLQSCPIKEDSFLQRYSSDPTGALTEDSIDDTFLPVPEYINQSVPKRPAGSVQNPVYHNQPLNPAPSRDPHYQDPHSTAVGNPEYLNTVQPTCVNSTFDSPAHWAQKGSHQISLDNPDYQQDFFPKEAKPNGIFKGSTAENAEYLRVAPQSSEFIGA

Row | logD (physchem) | pKi [1] | Stability (Liver microsome) | Stability (Hepatocyte) | pKi [2] | pEC50 (NCI-H1975) | pIC50 [3] | Compound
1 | 2.8 | 7.15 |  |  |  |  |  | COC1CCN(c2nccc(Nc3cc4c(cn3)ncn4CC(F)(F)F)n2)CC1
2 | 0.1 |  | Stable |  |  |  |  | COC1(CCN)CCN(c2nccc(Nc3cc4c(cn3)nc(C)n4C(C)C)n2)CC1
3 | 1.8 | 7.47 |  | Unstable |  |  |  | Cc1nc2cnc(Nc3ccnc(N4CCC(O)CC4)n3)cc2n1C(C)C
4 | 2.3 | 7.06 |  |  |  |  |  | COC1CCN(c2nccc(Nc3cc4c(cn3)ncn4C3CC3)n2)CC1
5 | 2.4 | 6.70 |  |  |  |  |  | CCn1cnc2cnc(Nc3ccnc(N4CCC(OC)CC4)n3)cc21
6 | 2.3 | 7.72 |  |  | 6.40 | 5.19 |  | COC1CCN(c2nccc(Nc3cc4c(cn3)nc(CO)n4C(C)C)n2)CC1
7 | 2.8 |  |  |  |  | 5.62 |  | CO[C@H]1CCN(c2nccc(Nc3cc4c(cn3)nc(CO)n4C(C)C)n2)CC1(F)F (racemic)
8 | 2.2 | 6.71 | Stable | Stable | < 5.82 |  |  | Cc1nc2cnc(Nc3ccnc(/C=C/C(C)(C)C(N)=O)n3)cc2n1C(C)C
9 | 1.9 | 6.18 |  |  | < 5.60 |  |  | Cc1nc2cnc(Nc3ccnc(SCC(C)(C)C(N)=O)n3)cc2n1C(C)C
10 |  | 7.24 |  |  | 6.27 |  |  | CO[C@H]1CCN(c2nccc(Nc3cc4c(cn3)nc(CO)n4C(C)C)n2)C[C@@H]1F (racemic)
11 | 2.8 | 7.32 |  |  |  |  |  | COC1CCN(c2nccc(Nc3cc4c(cn3)ncn4C3CCC3)n2)CC1
12 | 1.8 | 6.83 |  |  |  |  |  | COC1CCN(c2nccc(Nc3cc4c(cn3)ncn4C3CCOC3)n2)CC1 (racemic)
13 | 2.1 | 7.12 |  |  |  |  |  | COC1CCN(c2nccc(Nc3cc4c(cn3)ncn4C3CCOCC3)n2)CC1
14 | 2.6 | 8.02 |  |  | < 6.39 | 5.77 | < 5.00 | Cc1nc2cnc(Nc3ccnc(N4CC[C@H](O)C(F)(F)C4)n3)cc2n1C(C)C (racemic)
15 | 2.5 | 7.36 |  |  | 5.74 |  |  | CO[C@H]1CCN(c2nccc(Nc3cc4c(cn3)nc(C)n4C(C)C)n2)C[C@@H]1F (racemic)
16 | 1.7 | 7.62 | Stable |  |  |  |  | COC1(CO)CCN(c2nccc(Nc3cc4c(cn3)nc(C)n4C(C)C)n2)CC1
17 | 1.7 | 6.82 |  |  |  |  |  | CC(C)n1cnc2cnc(Nc3ccnc(N4CCC(C(N)=O)CC4)n3)cc21
18 | 1.9 |  |  |  | 5.92 | 5.15 |  | COC1CCN(c2nccc(Nc3cc4[nH]cnc4cn3)n2)CC1
19 |  | 7.66 |  |  |  |  |  | CCC(C)n1cnc2cnc(Nc3ccnc(N4CCC(OC)CC4)n3)cc21 (racemic; form 3)
20 | 2.7 | 7.57 |  |  |  |  |  | COC1CCN(c2nccc(Nc3cc4c(cn3)ncn4C(C)C(F)(F)F)n2)CC1 (racemic)
21 | 3.4 | 7.74 |  |  |  |  |  | COC1CCN(c2nccc(Nc3cc4c(cn3)ncn4C3CCCCC3)n2)CC1
22 | 2.4 | 7.11 |  |  |  |  |  | COCC1(OC)CCN(c2nccc(Nc3cc4c(cn3)nc(C)n4C(C)C)n2)CC1
23 | 1.6 | 6.91 | Stable | Stable | 6.17 |  |  | Cc1nc2cnc(Nc3ccnc(N4CCC(C)(C(N)=O)C4)n3)cc2n1C(C)C (stereo not drawn)
24 | 2.3 | 8.57 |  |  | 5.97 | 6.25 | < 5.00 | CO[C@H]1CCN(c2nccc(Nc3cc4c(cn3)nc(C)n4C(C)C)n2)C[C@H]1F (racemic)
25 | 2 | 7.30 |  |  |  |  |  | COC1(CCO)CCN(c2nccc(Nc3cc4c(cn3)nc(C)n4C(C)C)n2)CC1
26 | 2.8 | 7.85 |  |  |  |  |  | CCC(C)n1cnc2cnc(Nc3ccnc(N4CCC(OC)CC4)n3)cc21 (racemic; form 1)
27 | 2.9 |  |  |  |  |  |  | COC1CCN(c2nccc(Nc3cc4c(cn3)ncn4C3CCCC3)n2)CC1
28 | 1.5 | 6.31 |  |  |  |  |  | COC1(CN(C)C)CCN(c2nccc(Nc3cc4c(cn3)nc(C)n4C(C)C)n2)CC1
